{"source": "patent US20110224133A1", "about": "(University of Southern California, priority 2008, published 2011)", "key": {"LC3-II": {"system": "LC3-II", "assay": "Anti-LC3 immunoblotting of starved NIH3T3 cells expressing FLIP", "assay_type": "cell-based, murine", "details": "starvation, Hank's solution 4 hr", "experimental": "The arrows indicate autophagosomes.\nDuring autophagy, an LC3 precursor (LC3-I) undergoes cleavage and lipidation to yield its processed form (LC3-II) (Mizushima et al. (2008) Nature 451:1069-1075). Immunoblotting was performed with an antibody against LC3 to further measure autophagic activity. […] Polypeptides were resolved by SDS-polyacrylamide gel electrophoresis (PAGE) and transferred to a PVDF membrane (Bio-Rad). […] The proteins were visualized by a chemiluminescence reagent (Pierce) and detected by a Fuji Phosphor Imager. […] Finally, the ability of FLIP to block autophagy in multiple cell types was evaluated."}, "NIH3T3 cells [1]": {"system": "NIH3T3 cells", "assay": "GFP-LC3 autophagy assay in NIH3T3 cells expressing FLIP", "assay_type": "cell-based, murine", "details": "ectopic expression in NIH3T3 cells, Hank's solution 4 hr or 2 μM rapamycin 3 hr"}, "Atg3 [2]": {"target": "T1, Atg3 (Homo sapiens, UniProt Q9NT62)", "T1 construct": "expressed in transfected cells; host or cells: HEK293T", "T1 sequence (Q9NT62 whole entry)": "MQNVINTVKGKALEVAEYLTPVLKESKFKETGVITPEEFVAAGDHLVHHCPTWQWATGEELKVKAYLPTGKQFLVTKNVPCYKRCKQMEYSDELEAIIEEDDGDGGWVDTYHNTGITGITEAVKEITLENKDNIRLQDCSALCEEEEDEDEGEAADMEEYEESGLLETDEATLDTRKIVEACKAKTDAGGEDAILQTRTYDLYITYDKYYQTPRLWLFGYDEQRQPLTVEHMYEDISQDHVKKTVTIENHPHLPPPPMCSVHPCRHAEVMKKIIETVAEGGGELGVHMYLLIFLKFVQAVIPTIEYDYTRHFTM", "assay": "Co-immunoprecipitation and GST pulldown with Atg3 in HEK293T cells", "assay_type": "binding", "details": "HEK293T cells, 48 hr post-transfection", "description": "(§1) For panel A, at 48 hr post-transfection with Flag-vFLIP and/or GFP-Atg3 (left) or Flag-vFLIP and/or GST-Atg3 (middle), HEK293T cells were used for immunoprecipitation with αFlag, αGFP, or GST pulldown, followed by immunoblotting with the indicated antibodies. For panel A (right), HEK293T cells transfected with FIag-vFLIP were used for immunoprecipitation with mouse IgG or αFlag, followed by immunoblotting with αAtg3. Panel B (top) depicts a schematic diagram of human Atg3. N,N-terminus; FR, flexible region; C, C-terminus. […] Panel C (top) depicts a schematic diagram of KSHV vFLIP. […] For panel F, NIH3T3-Vector and NIH3T3-vFLIP cells were treated with 2 nM rapamycin for 12 hr and used for IP with αAtg3, followed by immunoblotting with αLC3. In panels A-F, whole cell lysates (WCLs) were used for immunoblotting with the indicated antibodies to show expression.\n(§2) WCLs were used for immunoblotting with αFlag or αGST. […] WCLs were used for immunoblotting with αFlag or αGST.\n(§3) The ability of FLIP to bind to Atg3 was evaluated by co-immunoprecipitation assay. HEK293T cells were transfected with Flag-vFLIP and/or GFP-Atg3 or Flag-vFLIP and/or GST-Atg3, and at 48 hr post-transfection, cells were harvested and lysed in an NP40 buffer supplemented with complete protease inhibitor cocktail (Roche). After pre-clearing with protein A/G agarose beads for 1 hr at 4° C., whole-cell lysates were used for immunoprecipitation with αFlag, αGFP, or GST. Generally, 1-4 μg of the antibody was added to 1 ml of the cell lysate and incubated at 4° C. for 8 to 12 hr. The immunoprecipitates were then washed extensively with a lysis buffer and eluted by boiling them with an SDS loading buffer for 5 min. Following immunoprecipitation, samples were treated to immunoblot using αAtg3 (1:500) (Novus).\n(§4) The overall structure of yeast Atg3 has a unique hammer-like shape with the N-terminal and C-terminal regions discretely responsible for Atg7 and Atg8 (equivalent to mammalian LC3) binding, respectively. (Yamada et al. (2007) J. Biol. Chem. 282:8036-8043). Based on the structure of yeast Atg3, human Atg3 deletion mutants fused with a GST mammalian expression vector were constructed: GST-Atg31-93, GST-Atg3193-268, GST-Atg3268-315, and GST-Atg3193-315."}, "Atg3 [3]": {"system": "Atg3", "assay": "Co-immunoprecipitation and GST pulldown with Atg3 in HEK293T cells", "assay_type": "binding, human", "details": "GST-Atg3 deletion mutants, GST pulldown", "description": "as §1, §2, §3, §4"}, "BCBL1 cells": {"system": "BCBL1 cells", "assay": "Protection of TREX-BCBL cells from rapamycin- or zVAD-induced growth suppression and autophagic death", "assay_type": "cell-based, human", "details": "ectopic expression in BCBL1 cells; 50 nM rapamycin or 50 μM zVAD, 6 days", "experimental": "The effect of vFLIP on autophagy was tested in a KSHV-infected BCBL1 cell line."}, "[4]": {"system": "HCT116, HaCat, and MEF cells", "assay": "GFP-LC3 autophagy assay in HCT116, HaCat and MEF cells", "assay_type": "cell-based", "details": "2 μM rapamycin 3 hr"}, "TREX-BCBL cells": {"system": "TREX-BCBL cells", "assay": "Autophagy and cell death in TREX-BCBL-vFLIP cells", "details": "for suppression of rapamycin-induced autophagy (and cell death) in TREX-BCBL cells: doxycycline-induced vFLIP, 2 μM rapamycin 12 hr", "quoted_text": "Subsequently, autophagy was quantified as means (±SD) of the combined results from three independent experiments. 2 μM rapamycin treatment was included as a control. For panels B (right), TREX-BCBL-Vector and TREX-BCBL-vFLIP cells were treated with Doxycycline for 24 hr, followed by incubation with 0, 30, or 50 μM of TAT only, the K-α2, or the K-α4 peptide (top), or TAT only, the C-α2, or the C-α4 peptide (bottom) for an additional 12 hr and a BC Z2 CS analyzer used to determine cell death (as a percentage). […] For panel E, TREX-BCBL-Vector and TREX-BCBL-vFLIP cells were treated with the K-α and the K-α4 (30 μM each) peptide for 12 hr, followed by immunoblotting with αLC3 and αactin. […] For panel G, various human lymphoma cells were treated with 0, 30, or 50 μM of the K-α2 peptide (left) or the K-α4 peptide (right) for 12 hr and cell death (as a percentage) was determined using a BC Z2 CS Analyzer. For panel H, KSHV-infected BCBL1 cells were incubated with various combinations of rapamycin (25 nM), the K-α2 peptide (20 μM), and the K-α4 peptide (20 μM). A BC Z2 CS Analyzer was used to determine cell numbers (left) and cell death at 6 days (right)."}, "NF-κB": {"system": "NF-κB", "assay": "NF-κB luciferase reporter assay in NIH3T3 cells", "assay_type": "cell-based, murine", "details": "48 hr post-transfection", "experimental": "(§5) In panel A, propidium iodide (PI) staining and flow cytometry analysis were performed to determine apoptosis levels. In panels B-C, NIH3T3 cells containing vector, KSHV vFLIP, or its mutants were transfected with an NF-κB luciferase reporter construct and a control renilla luciferase plasmid, pRL-SV40. At 48 hr post-transfection, luciferase activity was measured with a luminometer using a dual luciferase assay kit and normalized with renilla luciferase activity to determine transfection efficiency (B). […] At 48 hr post-transfection, luciferase activity was measured as described above (E).\n(§6) Propidium iodide (PI) staining and flow cytometry analysis were performed to determine apoptosis levels (FIG. 3A). Alternatively, NIH3T3 cells containing vector, KSHV vFLIP, or its mutants were transfected with an NF-κB-luciferase reporter construct and a control renilla luciferase plasmid, pRL-SV40 (Promega). At 48 hr post-transfection, luciferase activity was measured with a luminometer using a dual luciferase assay kit (Promega) and normalized with renilla luciferase activity to determine transfection efficiency (FIG. 3B)."}, "Atg3-LC3 interaction [5]": {"target": "T2, Atg3-LC3 interaction (Homo sapiens, UniProt Q9NT62)", "T2 construct": "expressed in transfected cells; host or cells: HEK293T", "T2 sequence (Q9NT62 whole entry)": "as above", "assay": "Competition with LC3 for Atg3 binding", "details": "HEK293T cells, GST-Atg3 and GFP-LC3", "description": "as §1\n(§7) Due to identical Atg3 binding patterns seen in vFLIP and LC3, the ability of vFLIP to directly compete with LC3 for Atg3 binding was tested. HEK293T cells were transfected with GST-Atg3 and GFP-LC3 along with increasing amount of Flag-vFLIP. At 48 hr post-transfection, GST pulldown was performed as described above, followed by immunoblotting with αGFP or αFlag."}, "Atg3-LC3 interaction [6]": {"system": "Atg3-LC3 interaction", "assay": "Competition with LC3 for Atg3 binding", "details": "NIH3T3 cells, normal conditions; weakly recovered with 2 nM rapamycin 12 hr", "description": "as §1, §7"}, "NIH3T3 cells [7]": {"system": "NIH3T3 cells", "assay": "TNF-α/CHX-induced apoptosis, PI staining and flow cytometry", "assay_type": "cell-based, murine", "details": "12 hr", "experimental": "as §5, §6"}}, "note": "Entries after “also recorded” stand apart in the source; their conditions may differ.", "data": [{"substance": "KSHV vFLIP: viral FLIP of Kaposi's sarcoma-associated herpes virus, full-length protein", "values": [{"measurement": "processed LC3-II", "setting": "LC3-II", "value": "little or no processed LC3-II"}, {"measurement": "suppression of starvation- and rapamycin-induced autophagy (GFP-LC3 puncta)", "setting": "NIH3T3 cells [1]", "value": "strongly suppressed starvation- and rapamycin-induced autophagy; also recorded: anti-autophagy"}, {"measurement": "suppression of starvation- and rapamycin-induced autophagy (GFP-LC3 puncta)", "setting": "NIH3T3 cells [1]; listed as vFLIP", "value": "effectively suppressed starvation- and rapamycin-induced autophagy"}, {"measurement": "Atg3 binding", "setting": "Atg3 [2]", "value": "strongly interacted with endogenously and exogenously expressed Atg3"}, {"measurement": "Atg3 regions bound (Atg3 deletion mutants)", "setting": "Atg3 [3]", "value": "independently bound either the aa193-268 or aa268-315 region of the C-terminal of Atg3"}, {"measurement": "protection from rapamycin- or zVAD-induced growth suppression and autophagic death", "setting": "BCBL1 cells", "value": "almost completely blocked rapamycin- or zVAD-induced growth suppression and autophagic death"}, {"measurement": "blocking of autophagy in several cell types", "setting": "[4]", "value": "efficiently blocked autophagy in a number of cell types"}, {"measurement": "inhibition of peptide-induced autophagy and cell death", "setting": "TREX-BCBL cells; TREX-BCBL-vFLIP cells treated with FLIP peptides", "value": "minimal"}, {"measurement": "suppression of rapamycin-induced autophagy (and cell death) in TREX-BCBL cells", "setting": "TREX-BCBL cells", "value": "readily blocked rapamycin-induced autophagy and cell death"}, {"measurement": "suppression of rapamycin-induced autophagy (and cell death) in TREX-BCBL cells", "setting": "TREX-BCBL cells; listed as vFLIP", "value": "extensively suppressed rapamycin-induced autophagy"}, {"measurement": "NF-κB activation", "setting": "NF-κB", "value": "carried out NF-κB activation"}, {"measurement": "Atg3-LC3 interaction with increasing vFLIP expression", "setting": "Atg3-LC3 interaction [5]", "value": "marked decrease of Atg3-LC3 interaction"}, {"measurement": "endogenous Atg3 and LC3 interaction", "setting": "Atg3-LC3 interaction [6]", "value": "dramatic reduction of endogenous Atg3 and LC3 interaction"}, {"measurement": "blocking of TNFα-induced apoptosis", "setting": "NIH3T3 cells [7]", "value": "anti-apoptosis"}]}]}
